Reference: PMC3945162 (Psychopharmacology, 2013)
Where “and” joins values, the source holds several entries; their conditions need not be identical. Equal entries are not always repeated. Where two headings read alike, the source gives them in different places.

Columns and labels:
human 5-HT2A receptor [1] = target: T1, human 5-HT2A receptor (Homo sapiens, UniProt P28223); experiment: [3H]AA release from HEK-5-HT2A cells; type: cell-based; details: for Emax: read-out: 5-HT2A Function [3H]AA release % maximal effect
hDAT [2] = target: T2, hDAT (Homo sapiens, UniProt Q01959); experiment: [3H]Dopamine release, HEK-hDAT cells; type: cell-based; details: HEK-hDAT cells
[3] = tested on: rats trained to discriminate LSD (0.1 mg/kg) from saline; type: in vivo, rat; details: for Rate of responding at dose of maximum DAR / Maximum %DAR (drug-appropriate responding): LSD-trained rats; for Maximum %DAR (drug-appropriate responding): i.p., at dose of maximum DAR
[4] = tested on: rats trained to discriminate DOM (0.5 mg/kg) from saline; type: in vivo, rat; details: for Maximum %DAR (drug-appropriate responding): i.p., at dose of maximum DAR
human 5-HT2A receptor [5] = target: T1, human 5-HT2A receptor; experiment: IP-1 formation, HEK-5-HT2A cells; type: cell-based; details: for Emax: read-out: 5-HT2A Function IP-1 formation % maximal effect
Male Swiss–Webster mice = experiment: Locomotor activity; type: in vivo, mouse
hSERT [6] = target: T3, hSERT (Homo sapiens, UniProt P31645); experiment: [3H]Serotonin uptake, HEK-hSERT cells; type: cell-based
[7] = tested on: rats trained to discriminate METH (1 mg/kg) from saline; type: in vivo, rat
[8] = tested on: rats trained to discriminate MDMA (1.5 mg/kg) from saline; type: in vivo, rat; details: for Rate of responding at dose of maximum DAR / Maximum %DAR (drug-appropriate responding): MDMA-trained rats; for Maximum %DAR (drug-appropriate responding): i.p., at dose of maximum DAR
Male Sprague-Dawley rats = experiment: Adverse effects observed during drug discrimination test sessions; type: in vivo, rat
hDAT [9] = target: T2, hDAT; experiment: [125I]RTI-55 binding, HEK-hDAT cells
human 5-HT2C receptor [10] = target: T4, human 5-HT2C receptor (Homo sapiens, UniProt P28335); experiment: biochemical; type: binding
T4 sequence (P28335 33-458): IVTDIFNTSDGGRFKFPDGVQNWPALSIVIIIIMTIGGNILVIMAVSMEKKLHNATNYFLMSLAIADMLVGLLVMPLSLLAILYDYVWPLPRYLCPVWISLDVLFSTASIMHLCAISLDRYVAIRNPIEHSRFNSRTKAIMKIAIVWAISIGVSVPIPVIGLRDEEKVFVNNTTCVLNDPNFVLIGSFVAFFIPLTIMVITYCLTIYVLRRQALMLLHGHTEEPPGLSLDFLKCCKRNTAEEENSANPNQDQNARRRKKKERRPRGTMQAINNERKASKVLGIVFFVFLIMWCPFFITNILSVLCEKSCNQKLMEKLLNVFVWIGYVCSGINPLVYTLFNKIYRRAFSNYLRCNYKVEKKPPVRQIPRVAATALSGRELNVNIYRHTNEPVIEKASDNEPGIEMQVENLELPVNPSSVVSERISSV

hSERT [11] = target: T3, hSERT; experiment: [125I]RTI-55 binding, HEK-hSERT cells
hSERT [12] = target: T3, hSERT; experiment: [3H]Serotonin release, HEK-hSERT cells; type: cell-based
hDAT [13] = target: T2, hDAT; experiment: [3H]Dopamine uptake, HEK-hDAT cells; type: cell-based
human 5-HT2C receptor [14] = target: T4, human 5-HT2C receptor; experiment: cell-based; details: for Emax: read-out: 5-HT2C Function IP-formation % maximal effect
human 5-HT1A receptor [15] = target: T5, human 5-HT1A receptor (Homo sapiens, UniProt P08908); experiment: [35S]GTPγS binding functional assay, HEK-5-HT1A; type: biochemical; details: for Emax: read-out: 5-HT1A Function [35S]GTPγS Binding % maximal effect
T5 sequence (P08908 1-422): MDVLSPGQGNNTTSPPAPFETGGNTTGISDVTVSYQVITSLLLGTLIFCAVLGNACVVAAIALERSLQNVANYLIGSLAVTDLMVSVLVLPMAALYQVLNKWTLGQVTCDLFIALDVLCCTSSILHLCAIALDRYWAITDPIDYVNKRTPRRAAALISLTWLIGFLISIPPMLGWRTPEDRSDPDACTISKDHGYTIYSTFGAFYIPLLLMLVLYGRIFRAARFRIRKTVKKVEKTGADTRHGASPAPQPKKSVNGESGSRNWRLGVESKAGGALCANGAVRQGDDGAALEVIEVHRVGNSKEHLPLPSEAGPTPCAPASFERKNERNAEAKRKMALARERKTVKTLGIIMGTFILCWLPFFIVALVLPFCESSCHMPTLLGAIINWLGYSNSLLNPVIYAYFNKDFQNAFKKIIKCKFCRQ

hNET [16] = target: T6, hNET (Homo sapiens, UniProt P23975); experiment: cell-based
hNET [17] = target: T6, hNET; experiment: cell-based; remark: listed apart in the source
human 5-HT1A receptor [18] = target: T5, human 5-HT1A receptor; experiment: [3H]8-OH-DPAT binding, HEK-5-HT1A
human 5-HT2A receptor [19] = target: T1, human 5-HT2A receptor; experiment: [125I]DOI binding, HEK-5-HT2A cells
hNET [20] = target: T6, hNET; experiment: biochemical; type: binding
[21] = tested on: rats trained to discriminate DMT (5 mg/kg) from saline; type: in vivo, rat
[22] = METH-trained rats, 15 min pretreatment
[23] = DMT-trained rats, 15 min pretreatment
[24] = 10 mg/kg, METH-trained rats, 15 min

T2 sequence (Q01959 whole entry): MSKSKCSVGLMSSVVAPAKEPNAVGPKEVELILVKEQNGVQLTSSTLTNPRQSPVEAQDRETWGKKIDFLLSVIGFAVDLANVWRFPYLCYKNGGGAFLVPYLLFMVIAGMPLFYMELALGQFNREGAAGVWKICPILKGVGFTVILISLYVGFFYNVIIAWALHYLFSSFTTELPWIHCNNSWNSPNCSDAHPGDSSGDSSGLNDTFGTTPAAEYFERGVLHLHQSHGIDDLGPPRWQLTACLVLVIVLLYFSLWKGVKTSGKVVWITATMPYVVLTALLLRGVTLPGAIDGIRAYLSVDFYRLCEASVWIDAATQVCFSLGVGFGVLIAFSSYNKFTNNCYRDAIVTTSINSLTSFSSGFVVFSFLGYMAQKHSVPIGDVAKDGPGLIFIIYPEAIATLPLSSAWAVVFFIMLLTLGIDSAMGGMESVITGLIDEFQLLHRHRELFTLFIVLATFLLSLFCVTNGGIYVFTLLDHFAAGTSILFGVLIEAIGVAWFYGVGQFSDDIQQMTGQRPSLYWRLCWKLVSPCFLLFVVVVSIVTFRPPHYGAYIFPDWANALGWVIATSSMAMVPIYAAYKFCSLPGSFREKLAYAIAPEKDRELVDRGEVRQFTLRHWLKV
T1 sequence (P28223 whole entry): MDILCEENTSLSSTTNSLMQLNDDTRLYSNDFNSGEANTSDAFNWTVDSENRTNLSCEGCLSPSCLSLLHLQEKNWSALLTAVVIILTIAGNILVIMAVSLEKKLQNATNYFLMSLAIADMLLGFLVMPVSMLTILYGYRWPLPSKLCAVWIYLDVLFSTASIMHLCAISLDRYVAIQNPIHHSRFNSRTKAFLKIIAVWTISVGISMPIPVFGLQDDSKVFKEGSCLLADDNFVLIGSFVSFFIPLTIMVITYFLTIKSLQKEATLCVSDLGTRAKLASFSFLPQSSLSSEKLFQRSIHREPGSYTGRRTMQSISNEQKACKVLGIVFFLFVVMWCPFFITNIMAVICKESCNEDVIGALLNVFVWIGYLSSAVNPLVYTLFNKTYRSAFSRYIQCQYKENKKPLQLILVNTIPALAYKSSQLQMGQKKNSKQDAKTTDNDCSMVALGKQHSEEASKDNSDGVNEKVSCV
T3 sequence (P31645 whole entry): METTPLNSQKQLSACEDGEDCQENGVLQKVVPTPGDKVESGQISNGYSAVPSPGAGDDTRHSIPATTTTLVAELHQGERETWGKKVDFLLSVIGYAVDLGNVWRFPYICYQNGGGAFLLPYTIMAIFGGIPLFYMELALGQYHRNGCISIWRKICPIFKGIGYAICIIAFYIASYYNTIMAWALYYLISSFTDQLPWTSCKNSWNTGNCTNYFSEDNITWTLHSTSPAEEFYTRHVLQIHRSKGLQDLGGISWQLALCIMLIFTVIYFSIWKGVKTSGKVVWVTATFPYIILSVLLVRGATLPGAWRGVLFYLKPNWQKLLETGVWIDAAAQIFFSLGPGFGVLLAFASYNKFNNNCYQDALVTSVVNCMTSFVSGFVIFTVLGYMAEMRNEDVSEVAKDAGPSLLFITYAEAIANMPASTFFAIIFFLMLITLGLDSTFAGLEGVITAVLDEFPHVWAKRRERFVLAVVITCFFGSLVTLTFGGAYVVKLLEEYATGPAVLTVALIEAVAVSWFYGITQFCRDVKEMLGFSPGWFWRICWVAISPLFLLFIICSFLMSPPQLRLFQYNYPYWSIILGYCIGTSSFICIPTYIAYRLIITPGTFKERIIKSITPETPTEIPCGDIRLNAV
T6 sequence (P23975 whole entry): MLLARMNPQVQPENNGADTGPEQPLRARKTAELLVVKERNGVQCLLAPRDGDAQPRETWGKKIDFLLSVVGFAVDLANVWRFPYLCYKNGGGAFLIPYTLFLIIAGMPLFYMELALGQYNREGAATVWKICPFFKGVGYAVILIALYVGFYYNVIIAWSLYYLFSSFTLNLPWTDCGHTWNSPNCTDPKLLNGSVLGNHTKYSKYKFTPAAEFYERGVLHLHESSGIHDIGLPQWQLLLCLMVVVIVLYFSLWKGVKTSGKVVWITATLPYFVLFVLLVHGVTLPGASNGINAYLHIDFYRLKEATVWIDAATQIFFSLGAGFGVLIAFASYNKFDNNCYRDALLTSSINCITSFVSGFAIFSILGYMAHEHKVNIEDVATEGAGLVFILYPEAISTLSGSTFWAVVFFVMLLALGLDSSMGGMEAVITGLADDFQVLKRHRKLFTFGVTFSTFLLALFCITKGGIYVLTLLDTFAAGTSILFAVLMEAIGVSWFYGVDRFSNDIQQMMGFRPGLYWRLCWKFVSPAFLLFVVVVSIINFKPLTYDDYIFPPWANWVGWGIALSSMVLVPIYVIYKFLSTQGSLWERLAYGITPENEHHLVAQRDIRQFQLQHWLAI

Structure (SMILES): COc1cc(CCN)c(OC)cc1Cl [2C-C, 2,5-dimethoxy-4-chlorophenethylamine]
- EC50 (human 5-HT2A receptor [1]): 0.0139 ± 0.0061 µM
- Emax (human 5-HT2A receptor [1]): 64.2 ± 2.2%
- [3H]Dopamine release % METH maximal effect (hDAT [2]): ND Minimal
- Rate of responding at dose of maximum DAR ([3]; 15 min pretreatment): 0.200±0.079 resp/s
- Maximum %DAR (drug-appropriate responding) ([3]; 15 min pretreatment): 75% and 75±25 ^2%
- Dose(s) that decreased response rate ([3]; rat, in vivo): 10 mg/kg
- Rate of responding at dose of maximum DAR ([4]; 15 min pretreatment): 0.366±0.070 resp/s
- Maximum %DAR (drug-appropriate responding) ([4]; 15 min pretreatment): 82±16 %
- EC50 (human 5-HT2A receptor [5]): 0.0401 ± 0.0047 µM
- Emax (human 5-HT2A receptor [5]): 102 ± 5.5%
- Convulsions (mice affected/tested) (Male Swiss–Webster mice; 100 mg/kg i.p., at 30 min): 2/8
- Tremors (mice affected/tested) (Male Swiss–Webster mice; 100 mg/kg i.p., at 30 min): 6/8
- Lethality (mice) (Male Swiss–Webster mice; 100 mg/kg i.p., within 120 min): 1/8
- Onset of depressant effects (within, after injection) (Male Swiss–Webster mice; mice, i.p.): ≤ 10 min
- IC50 (hSERT [6]): > 9.6 µM
- Rate of responding at dose of maximum DAR [7, 22]: 0.156±0.096 resp/s
- Dose(s) that decreased response rate ([7]; rat, in vivo): 25 mg/kg
- Rate of responding at dose of maximum DAR ([8]; 15 min pretreatment): 0.244±0.086 resp/s
- Maximum %DAR (drug-appropriate responding) ([8]; 15 min pretreatment): 89±11 %
- Dose(s) that decreased response rate ([8]; rat, in vivo): 2.5 mg/kg
- Reddening of the extremities (rats affected/tested) (Male Sprague-Dawley rats; 25 mg/kg i.p.): 3/3
- Salivation (rats affected/tested) (Male Sprague-Dawley rats; 25 mg/kg i.p.): 1/3
- Ki (hDAT [9]): > 10 µM
- Ki (human 5-HT2C receptor [10]): 0.0054 ± 0.0012 µM
- Ki (hSERT [11]): > 10 µM
- [3H]Serotonin release % PCA maximal effect (hSERT [12]): ND Minimal
- IC50 (hDAT [13]): > 10 µM
- EC50 (human 5-HT2C receptor [14]): 0.0242 ± 0.0056 µM
- Emax (human 5-HT2C receptor [14]): 93.5 ± 6.5%
- EC50 (human 5-HT1A receptor [15]): > 10 µM
- Emax (human 5-HT1A receptor [15]): < 25%
- [3H]NE release % METH maximal effect (hNET [16]): ND Minimal
- IC50 (hNET [17]): > 9.5 µM
- Ki (human 5-HT1A receptor [18]): 0.74 ± 0.17 µM
- Ki (human 5-HT2A receptor [19]): 0.00547 ± 0.00068 µM
- Ki (hNET [20]): > 7.6 µM
- Rate of responding at dose of maximum DAR [21, 23]: 0.235±0.098 resp/s
- Dose(s) that decreased response rate ([21]; rat, in vivo): 10 mg/kg

Structure (SMILES): COc1cc(CCN)c(OC)cc1C [2C-D, 2,5-dimethoxy-4-methylphenethylamine]
- EC50 (human 5-HT2A receptor [1]): 0.153 ± 0.028 µM
- Emax (human 5-HT2A receptor [1]): 81.1 ± 9.7%
- [3H]Dopamine release % METH maximal effect (hDAT [2]): ND Minimal
- Rate of responding at dose of maximum DAR ([3]; 15 min pretreatment): 0.385±0.060 resp/s
- Rate of responding at dose of maximum DAR ([3]; 70 min pretreatment): 0.379±0.054 resp/s
- Maximum %DAR (drug-appropriate responding) ([3]; 15 min pretreatment): 83±17 %
- Maximum %DAR (drug-appropriate responding) ([3]; 70 min pretreatment): 83±17 %
- Rate of responding at dose of maximum DAR ([4]; 15 min pretreatment): 0.383±0.038 resp/s
- Rate of responding at dose of maximum DAR ([4]; 70 min pretreatment): 0.338±0.187 resp/s
- Maximum %DAR (drug-appropriate responding) ([4]; 15 min pretreatment): 100±0 %
- EC50 (human 5-HT2A receptor [5]): 0.145 ± 0.039 µM
- Emax (human 5-HT2A receptor [5]): 93 ± 6.7%
- Lethality (mice) (Male Swiss–Webster mice; 100 mg/kg i.p., within 30 min): 8/8
- Doses producing stimulant effects on locomotor activity (Male Swiss–Webster mice; mice, i.p.): 3 mg/kg
- Duration of depressant effects (Male Swiss–Webster mice; mice, i.p.): 20 to 40 min
- Duration of stimulant effects (Male Swiss–Webster mice; mice, i.p.): 180 min
- Onset of depressant effects (within, after injection) (Male Swiss–Webster mice; mice, i.p.): ≤ 10 min
- Onset of stimulant effects (within, after injection) (Male Swiss–Webster mice; mice, i.p.): ≤ 50 min
- IC50 (hSERT [6]): > 8.4 µM
- Rate of responding at dose of maximum DAR [7, 22]: 0.190±0.086 resp/s
- Rate of responding at dose of maximum DAR ([7]; METH-trained rats, 70 min pretreatment): 0.072±0.032 resp/s
- Maximum %DAR (drug-appropriate responding) ([7]; METH-trained rats, i.p., 15 min pretreatment, at dose of maximum DAR): 15±15 ^2%
- Rate of responding at dose of maximum DAR ([8]; 15 min pretreatment): 0.402±0.073 resp/s
- Rate of responding at dose of maximum DAR ([8]; 70 min pretreatment): 0.547±0.127 resp/s
- Maximum %DAR (drug-appropriate responding) ([8]; 15 min pretreatment): 61% and 61±20 ^2%
- Rats that failed to complete the first fixed ratio (Male Sprague-Dawley rats; [24]): 4/6
- Reddening of the extremities (rats affected/tested) (Male Sprague-Dawley rats; [24]): 2/6
- Rats with salivation and failure to complete the first fixed ratio (Male Sprague-Dawley rats; 50 mg/kg, 70 min): Two of three
- Ki (hDAT [9]): > 10 µM
- Ki (human 5-HT2C receptor [10]): 0.0127 ± 0.0013 µM
- Ki (hSERT [11]): > 10 µM
- [3H]Serotonin release % PCA maximal effect (hSERT [12]): ND Minimal
- IC50 (hDAT [13]): > 10 µM
- EC50 (human 5-HT2C receptor [14]): 0.0711 ± 0.008 µM
- Emax (human 5-HT2C receptor [14]): 100 ± 14%
- EC50 (human 5-HT1A receptor [15]): > 10 µM
- Emax (human 5-HT1A receptor [15]): < 25%
- [3H]NE release % METH maximal effect (hNET [16]): ND Minimal
- IC50 (hNET [17]): > 9.2 µM
- Ki (human 5-HT1A receptor [18]): 1.63 ± 0.15 µM
- Ki (human 5-HT2A receptor [19]): 0.0239 ± 0.0039 µM
- Ki (hNET [20]): > 8.5 µM
- Rate of responding at dose of maximum DAR [21, 23]: 0.154±0.070 resp/s
- Rate of responding at dose of maximum DAR ([21]; DMT-trained rats, 70 min pretreatment): 0.332±0.067 resp/s
- Maximum %DAR (drug-appropriate responding) ([21]; DMT-trained rats, i.p., 70 min pretreatment, at dose of maximum DAR): 83±17 %
